Measurements as given in paper PMC12209456, “Serine/threonine/tyrosine kinase 1 drives pancreatic carcinogenesis via GSK3β sequestration-mediated Wnt/β-catenin pathway hyperactivation” (Signal Transduction and Targeted Therapy, 2025).
Where a name gives a salt, the structure may show the parent alone.

Experiments:
[1] = system: Wnt/β-catenin signaling in colorectal cancer; conditions: cited from earlier work
Description: Continuously activated Wnt/β-catenin signaling via genetic or epigenetic ways, serves as a potent oncogenic driver across malignancies, spurring intensive efforts to develop targeted inhibitors. Nonetheless, tissue homeostasis and regeneration could be impaired upon the blockade of Wnt signaling, which needs to be resolved and limits Wnt-based therapies. Recent breakthroughs have unmasked tumor-specific vulnerabilities, identifying cancer-cell-restricted regulators that fine-tune Wnt signaling outputs, offering promising avenues for selectively crippling oncogenic Wnt activity.[59] For example ...

[2] = system: STYK1 Y191 phosphorylation by BLK kinase; assay: STYK1 tyrosine phosphorylation by BLK (IP-Western / in vitro kinase assay); format: biochemical; conditions: HEK293T cells, BLK overexpression; GST-STYK1 ICD and HA-BLK kinase reactions
Experimental: (§1) Whole-cell extracts were prepared with 1% sodium dodecyl sulfate lysis buffer with freshly added 1% proteinase inhibitor cocktail (Biomake, B14001) and 1 mM phenylmethylsulfonyl fluoride (PMSF, MCE, HY-B0496). Western blot was performed as described previously.[20] The following primary antibodies were used: anti-phospho-β-catenin (Ser33/37/Thr41) (9561, Cell Signaling Technology), anti-β-catenin (51067-2-AP, Proteintech), anti-β-TrCP (4394, Cell Signaling Technology), anti-Non-phospho (Active) β-catenin (Ser33/37/Thr41) (8814, Cell Signaling Technology), anti-STYK1 (862318, zenbio), anti-C-myc (10828-1-AP, Proteintech), anti-CyclinD1 (60186-1-Ig, Proteintech), anti-Axin2 (20540-1-AP, Proteintech), anti-mouse HA (M180-3, EMD Millipore), anti-Rabbit HA (51064-2-AP, Proteintech), anti-mouse […] (M185, MBL), anti-Rabbit […] […]
GST affinity-isolation assay was performed as described previously.[18] […] Surface plasmon resonance analysis (Biacore T200) quantified binding kinetics between GST-β-catenin/GSK3β and synthetic α-helical peptides, with dissociation constants calculated via BIA evaluation software.

PANC-1 xenograft = PANC-1 xenograft in nude mice; format: in vivo, mouse
Experimental: PANC-1 xenograft tumors were further established in nude mice via subcutaneous hindlimb injection (Fig. 8e). 25 mg/kg STYK1-driving peptides were intraperitoneally injected twice a week after the subcutaneous tumor formed.
(2) Mouse subcutaneous xenograft experiments were carried out as previously described.[25] Female BALB/c nude mice (4-week-old, 18–22 g) were sourced from Hunan SJA Laboratory Animal (Cat: hnslkjd006; Changsha, China) and housed under SPF conditions with routine health surveillance.

[3] = system: β-catenin/TCF4 transcriptional activity; assay: 7TGC reporter assay; format: cell-based, human; conditions: PANC-1 cells, EGF (100 ng/mL) or CQ (100 μM)
Description: The PCR products of STYK1, GSK3β, and Axin1 were cloned into pcDNA3.1-3×HA, pCMV-3×Flag (Sigma, E4401), and pCMV-mCherry (constructed by our lab) respectively. […] To make STYK1, β-catenin, GSK3β, or BLK mutants or truncations, a series of forwarding primers harboring the desired mutations were used in PCRs. The nucleotide sequences of all constructs were confirmed by DNA sequencing. […] DNA and interference RNA were transfected with Lipofectamine 3000 (Invitrogen, L3000015) according to the manufacturer’s instructions. shRNA for STYK1 #1: 5ʹ- [sequence] -3ʹ. #2: 5ʹ- [sequence] -3ʹ. siRNA for STYK1 was 5ʹ- [sequence] -3ʹ. siRNA for β-catenin was 5ʹ- [sequence] -3ʹ. siRNA for HRS was 5ʹ- [sequence] -3ʹ, siRNA for VPS24 was 5ʹ- [sequence] -3ʹ.

CyclinD1/Axin2/C-myc = assay: Wnt target gene expression (western blot, qRT-PCR); format: cell-based, human; conditions: PANC-1 cells, EGF (100 ng/mL) or CQ (100 μM)
Experimental: Whole-cell extracts were prepared with 1% sodium dodecyl sulfate lysis buffer with freshly added 1% proteinase inhibitor cocktail (Biomake, B14001) and 1 mM phenylmethylsulfonyl fluoride (PMSF, MCE, HY-B0496). Western blot was performed as described previously.[20]
Total RNA was extracted from cultured pancreatic cancer cells using Trizol reagent (Invitrogen) according to the manufacturer’s protocol. qRT-PCR was performed as previously described.^3 The mRNA expression level for each sample was normalized to the expression of GAPDH using the 2 ^-ΔΔct method^4 with three biological replicates of comparative qRT-PCR. The following primer sequences were used for qRT-PCR: GAPDH, (forward) 5′- […] -3′ and (reverse) 5′- […] -3′; CyclinD1, (forward) 5′- […] -3′ and (reverse) 5′- […] -3′; C-myc, (forward) 5′- […] -3′ and (reverse) 5′- […] -3′; Axin2, (forward) 5′- […] -3′ and (reverse) 5′- […] -3′; STYK1, (forward) 5′- […] -3′ and (reverse) 5′- […] -3′. Amplification was performed in an ABI Q3 real-time PCR system using a SYBR Green master mix (YEASEN, 11201ES08).

Wnt/β-catenin signaling = assay: STYK1-mediated Wnt/β-catenin signaling, PANC-1 cells; format: cell-based, human
Experimental: as §1

p62 and LC3 = assay: Autophagic flux markers p62 and LC3, PANC-1 cells (western blot); format: cell-based, human
Experimental: as §1

**Q.** Which “inhibition of Wnt/β-catenin signaling” value [1] does the source give for `C/C=C/[C@H]1O[C@@](O)([C@@H](C)[C@H](O)[C@H](C)[C@H]2OC(=O)/C(OC)=C/C(C)=C/[C@@H](C)[C@@H](O)[C@@H](CC)[C@@H](O)[C@H](C)C/C(C)=C/C=C/[C@@H]2OC)C[C@@H](O)[C@@H]1C` [concanamycin] here?
**A.** The value was “marked inhibition of Wnt/β-catenin signaling in colorectal cancer”.

**Q.** Which “BLK-mediated phosphorylation of STYK1 Y191” value [2] does the source give for `CN1CCN(CCOc2cc(OC3CCOCC3)c3c(Nc4c(Cl)ccc5c4OCO5)ncnc3c2)CC1` [saracatinib] here?
**A.** Its value is “saracatinib inhibition”.

**Q.** Which “inhibition of Wnt/β-catenin signaling” value [1] does the source give for bafilomycin here?
**A.** The value was “marked inhibition of Wnt/β-catenin signaling in colorectal cancer”.

**Q.** Which “tumor growth (methods statement)” value (PANC-1 xenograft; BALB/c nude mice, PANC-1 xenografts, biweekly intraperitoneal, synthetic peptides (25 mg/kg)) does the source give for `Oc1nc(-c2ccc(C(F)(F)F)cc2)nc2c1CSCC2` [XAV939] here?
**A.** The value was “reduced tumor growth”.

**Q.** And the “STYK1-mediated xenograft tumor growth” value (PANC-1 xenograft; PANC-1 xenografts with STYK1 WT or mutants, nude mice, n = 3)?
**A.** The value was “suppressed STYK1-mediated xenograft tumor growth, including mutant variants”.

**Q.** Which results are given for `CCN(CC)CCCC(C)Nc1ccnc2cc(Cl)ccc12` (stereo not shown) [CQ, chloroquine diphosphate salt]?
**A.** Wnt signaling in the 7TGC system [3]: decreased Wnt signaling in the 7TGC system; STYK1-mediated alteration of the Wnt/β-catenin target genes C-myc, Axin2 (CyclinD1/Axin2/C-myc): down-regulated STYK1-mediated alteration of the Wnt/β-catenin target genes C-myc, Axin2

**Q.** Which “STYK1-mediated activation of Wnt/β-catenin signaling” value (Wnt/β-catenin signaling) does the source give for `O=C(N/N=C/c1ccc(O)c(O)c1)c1cc2ccccc2cc1O` [dynasore] here?
**A.** Its value is “significantly blocked STYK1-mediated activation of Wnt/β-catenin signaling”.

**Q.** And the “level of LC3” value (p62 and LC3)?
**A.** Its value is “decreased”.

**Q.** What about the “level of p62” value (p62 and LC3) of the same compound?
**A.** The value was “increased”.
